Values joined by “and” are separate entries in the source; they are usually repeats but may differ in a detail not shown here. Identical values can stand only once.
Assay: Particle size distribution test after jet milling (light scattering)
Type: physicochemical
Conditions: for X90 Mean: mean of 3 experiments; for X90: single experiments 1-3
Procedure: The particle size distribution X90 described herein is determined by a light scattering method (Method 3 of Determination of Particle Size and Distribution of General Chapter 0982, Chinese Pharmacopoeia, Volume IV, 2020 Edition).
After jet milling, the crystal form I was tested for the particle size distribution by referring to Method 3 (a light scattering method) of Determination of Particle Size and Distribution of General Chapter 0982, Chinese Pharmacopoeia, Volume IV, 2020 Edition, with the specific steps as follows: 10 mg of the sample was weighed and placed in a laser scattering particle size distribution analyzer for testing (trigger conditions: 10 s, 1%; dispersion pressure: 2.0 bar).

What does the source list for `Cn1cc(-c2nc(N=S(C)(C)=O)ccc2Oc2ccc(F)cc2F)c2cc[nH]c2c1=O` [crystal form I]?
X90 Mean (milling pressure 0.1 MPa): 11.50 μm; X90 (milling pressure 0.1 MPa): 11.54 μm and 11.46 μm and 11.50 μm; X90 Mean (milling pressure 0.3 MPa): 5.82 μm; X90 (milling pressure 0.3 MPa): 5.78 μm and 6.02 μm and 5.67 μm
